From US8101608B2, “Compounds and compositions as protein kinase inhibitors” (IRM LLC, a Delware Limited Corporation, priority 2004, dated 2012)

Tests used:
trkC = target: T1, trkC (Homo sapiens, UniProt Q16288); experiment: Inhibition of cellular ETV6-NTRK3 dependent proliferation (Ba/F3 EN cells); type: cell-based, murine; details: MTT, read-out: IC50 for TrkC
T1 construct: fused on or other part: P41212 (Transcription factor ETV6)
Protocol: The murine cell line used is the Ba/F3 hematopoietic progenitor cell line transformed with ETV6-NTRK3 cDNA (Ba/13 EN). These cells are maintained in RPMI/10% fetal calf serum (RPMI/FCS) supplemented with penicillin 50 μg/mL, streptomycin 50 μg/mL and L-glutamine […]. Untransformed Ba/F3 cells are similarly maintained with the addition of 10% of WEHI conditioned medium as a source of IL3.

Aurora-A = target: T2, Aurora-A (Homo sapiens, UniProt O14965); experiment: Kinase inhibition, Upstate KinaseProfiler radio-enzymatic filter binding assay; type: biochemical
T2 construct: purchased Upstate (KinaseProfiler panel)
T2 sequence (O14965 1-403): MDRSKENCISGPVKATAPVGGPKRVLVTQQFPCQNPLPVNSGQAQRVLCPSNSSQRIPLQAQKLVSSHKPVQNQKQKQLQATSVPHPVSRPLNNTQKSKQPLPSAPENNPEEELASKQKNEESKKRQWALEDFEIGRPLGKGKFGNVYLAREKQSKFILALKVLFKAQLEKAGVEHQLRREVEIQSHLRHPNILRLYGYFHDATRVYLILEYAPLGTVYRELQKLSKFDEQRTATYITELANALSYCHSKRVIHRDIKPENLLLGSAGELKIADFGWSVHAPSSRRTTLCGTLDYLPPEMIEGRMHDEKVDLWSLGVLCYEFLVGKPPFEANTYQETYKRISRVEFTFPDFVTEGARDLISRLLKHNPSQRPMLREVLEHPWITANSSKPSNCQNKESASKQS
Protocol: (§1) Percentage inhibition is calculated for each reaction.

c-RAF = target: T3, c-RAF (Homo sapiens, UniProt P04049); experiment: as above; type: biochemical
T3 construct: "active kinase (0.001-0.01 Units); fused on or other part: Probably an N-terminal GST tag (vendor's product)
Protocol: as §1

T3 sequence (P04049 whole entry Y340D/Y341D, form open, the tested form may be a part): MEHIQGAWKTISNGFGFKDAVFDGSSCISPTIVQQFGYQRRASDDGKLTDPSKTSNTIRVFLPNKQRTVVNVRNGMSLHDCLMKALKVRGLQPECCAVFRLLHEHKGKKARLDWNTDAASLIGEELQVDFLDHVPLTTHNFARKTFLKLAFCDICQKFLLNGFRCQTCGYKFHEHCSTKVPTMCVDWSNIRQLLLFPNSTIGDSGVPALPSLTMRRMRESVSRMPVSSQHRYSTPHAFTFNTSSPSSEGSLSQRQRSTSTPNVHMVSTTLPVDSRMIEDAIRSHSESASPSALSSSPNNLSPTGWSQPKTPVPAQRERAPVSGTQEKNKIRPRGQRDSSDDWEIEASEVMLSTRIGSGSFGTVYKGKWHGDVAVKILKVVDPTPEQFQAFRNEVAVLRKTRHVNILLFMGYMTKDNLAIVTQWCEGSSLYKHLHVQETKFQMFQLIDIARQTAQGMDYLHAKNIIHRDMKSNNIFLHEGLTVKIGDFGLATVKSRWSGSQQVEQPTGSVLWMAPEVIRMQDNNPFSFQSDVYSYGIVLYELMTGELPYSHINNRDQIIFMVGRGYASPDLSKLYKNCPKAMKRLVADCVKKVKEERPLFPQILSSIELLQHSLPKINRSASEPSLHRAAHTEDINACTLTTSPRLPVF
T1 sequence (Q16288 whole entry, change not shown, the tested form may be a part): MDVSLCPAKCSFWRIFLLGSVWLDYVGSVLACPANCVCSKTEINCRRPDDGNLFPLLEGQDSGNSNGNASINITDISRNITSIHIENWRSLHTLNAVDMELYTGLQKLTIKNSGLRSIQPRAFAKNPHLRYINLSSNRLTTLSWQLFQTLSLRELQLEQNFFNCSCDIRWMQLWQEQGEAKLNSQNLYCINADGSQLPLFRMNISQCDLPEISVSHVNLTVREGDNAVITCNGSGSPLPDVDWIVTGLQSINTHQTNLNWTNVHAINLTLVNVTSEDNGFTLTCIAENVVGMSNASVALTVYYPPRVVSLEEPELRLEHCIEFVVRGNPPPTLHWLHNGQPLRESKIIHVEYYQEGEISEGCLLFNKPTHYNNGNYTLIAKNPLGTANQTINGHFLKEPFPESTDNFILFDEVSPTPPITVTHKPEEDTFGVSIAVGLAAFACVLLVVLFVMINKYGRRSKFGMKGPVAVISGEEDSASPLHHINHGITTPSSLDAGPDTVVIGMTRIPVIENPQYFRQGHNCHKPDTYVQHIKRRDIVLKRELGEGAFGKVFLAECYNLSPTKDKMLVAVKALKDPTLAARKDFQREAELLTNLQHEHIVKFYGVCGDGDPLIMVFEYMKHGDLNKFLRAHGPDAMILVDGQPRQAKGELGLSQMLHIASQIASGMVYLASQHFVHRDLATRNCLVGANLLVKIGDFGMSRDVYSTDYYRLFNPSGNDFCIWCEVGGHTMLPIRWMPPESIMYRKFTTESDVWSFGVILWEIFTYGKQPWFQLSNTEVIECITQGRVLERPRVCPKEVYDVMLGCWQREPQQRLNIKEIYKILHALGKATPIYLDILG

`Cc1cn(-c2cc(C(=O)Nc3cccc(Nc4ccc5c(c4)NC(=O)/C5=C/c4ccc[nH]4)c3)cc(C(F)(F)F)c2)cn1` [Example 1] was tested, and the GI50 (trkC) was 16.7 nM, the IC50 (Aurora-A) was 15 nM and the IC50 (c-RAF) was 116 nM.
